Measured values as given in article PMC12298391, “Novel Lung Cell-Penetrating Peptide Targets Alveolar Epithelial Type II Cells, Basal Cells, and Ionocytes” (Pharmaceutics, 2025).
Where a SMILES comes first, the peptide text is derived from it. The star is where a group is joined. X1 = CN1C(=CC=CC=CC2=[N+](CCCCCC(=O)*)c3ccc4ccccc4c3C2(C)C)C(C)(C)c2c1ccc1ccccc21

Columns and labels:
[1] = tested on: Human bronchial epithelial cells; assay: Confocal microscopy of peptide uptake by HBECs; format: cell-based; conditions: 10 μM Cy5.5 peptide, 2, 10 and 30 min, 37 °C
Description: Identification and biodistribution of lung-targeting peptides: Eleven “alanine mutant” versions of CTP were synthesized along with the 6 N-terminus CTP-A (APWHLS) and 6 C-terminus CTP-B (SQYSRT), along with CTP peptide as a standard comparison. H9C2 cells, a rat cardiomyoblast cell line, were incubated with 10 μM of the fluorescent peptides, and FACS was performed (Figure 1A). H9C2 cells were chosen because initial phage display studies that led to the identification of CTP were conducted in this cell line, and we had prior evidence of successful transduction of these cells with CTP, which we used as a reference for comparing the alanine mutants. […]. These were injected intravenously in wild-type CD1 mice at a dose of 10 mg/kg. Counter to our expectations, uptake in the heart was negligible. […]; Supplementary Figure S1). […]
Supplemental Figure S2: Human bronchial epithelial cells transduce robustly with LTPs.
Human bronchial epithelial cells were plated on cover slips and treated with 10μM of linear
3x with pre-warmed PBS, fixed, counterstained with DAPI and confocal microscopy
have a cytoplasmic, peri-nuclear localization. Random peptide has very little to no uptake.
(1 picture or pasted object on this page, not shown here)

[2] = tested on: human Cystic Fibrosis bronchial epithelial cells (CFBE41o-); assay: Transferrin uptake assay, colocalization with endocytosed Alexa-488 transferrin; format: cell-based; conditions: confocal; for Uptake by CFBE41o- cells over time: 4 °C, then 5 and 30 min at 37 °C; for Co-localization with endocytosed Alexa-488 transferrin: serum-starved cells, Cy5.5 peptides
Description: Endocytosis studies: In order to investigate the mechanism of cell entry, human bronchial epithelial cells (HBECs) were serum-starved overnight and subsequently treated with specific endocytic pathway inhibitors. […] At the end of the incubation period, the cells were washed, trypsinized, harvested, and fixed with 2% PFA for 10 min at room temperature (RT), followed by a single wash and resuspension in PBS, and they were subjected to FACS analysis. […] The cells were washed with cold PBS, incubated with Alexa-488-labeled transferrin on ice in a cold room, and incubated for an hour. At the end of incubation, Cy5.5-labeled random, linear or cyclic LTPs were added and transferred to 37 °C, and after each time point, the cells were washed and fixed in 4% PFA. The cells were stained with Hoechst and mounted for confocal imaging.
Figure 5 Cystic Fibrosis bronchial epithelial cells (CFBE41o-) uptake S7A and R11A without colocalization with endocytosed transferrin. CFBE41o- cells were serum-starved, followed by incubation with transferrin-488, or Cy5.5-labeled linear or cyclic Random, S7A, or R11A, followed by fixation at indicated time points, and confocal microscopy performed. […] (A). Linear peptide colocalization. (B). Cyclic peptide colocalization. (C). Quantification of relative fluorescence of cyclic peptides. ** p < 0.01, *** p < 0.001.

[3] = mouse, in vivo, iv, 5 mg/kg
Description: (§1) Wild-type, 6-week-old, CD1 (Charles Rivers, Wilmington, MA, USA; Cat #022) mice were weighed and anesthetized with an intraperitoneal injection of a 1:1 cocktail of Ketamine–Xylazine at 1–2 μL/gm body weight, followed by intravenous injection with Cy5.5-labeled peptides that were allowed to circulate for various time points. At the end of the circulation times, the mice were euthanized using inhalational CO2, their chest cavity was opened, their right atrium nicked and 3–5 mL of 10% formalin was injected through the left ventricular apex to perfusion-fix the animals. Various organs were harvested, rinsed once in PBS and imaged using an In Vivo Imaging System (IVIS; PerkinElmer Inc., Waltham, MA, USA) with identical instrument settings (stage position, exposure time, binning, F-stop, etc.). The organs were placed in 10% formalin at RT for 4 h, transferred to 15% sucrose at 4 °C overnight, followed by 30% sucrose at 4 °C overnight, before being embedded and cryo-sectioned at 6 μM thickness. The sections were cross-stained with various primary antibodies for ATII cells (ABCA3), basal cells (p63, KRT5), ionocytes (FOXI1), goblet cells (MUC5AC), ATI cells (HOPX), ciliated cells (acetylated tubulin), club cells (Uteroglobin), pulmonary endothelial cells (CD31), and airway smooth muscle cells (α-SMA) overnight at 4 °C. The sections were washed and incubated with Alexa-Fluor-488-conjugated secondary antibody at RT for 1 h. Additionally, kidney sections were stained with Lotus tetragonolobus Lectin-FITC (LTL-FITC) at RT for 1 h. All sections were then washed and mounted with DAPI, and confocal microscopy was performed. All peptides and time points were tested in triplicate (N = 3).

wild-type CD1 mice = conditions: 15 min, N = 3; for Uptake in the heart: confocal
Description: as §1

[4] = Serum stability in fetal bovine serum, mass spectrometry; format: in vitro ADME; conditions: 10 µg/mL, 37 °C/5% CO2, 0-360 min, acetonitrile precipitation, C-peptide internal standard, LC-MS full scan peak area, triplicate
Description: At the end of each incubation time point, the tubes were removed and placed on ice; 25 µL of 1 µM C-peptide as an internal standard was added to the tube and vigorously vortexed for 15 s, followed by the addition of 500 μL of acetonitrile to each tube, vortexing for 30 secs, and centrifugation at maximum speed in a tabletop centrifuge for 5 min at 4 °C. The clear supernatant was transferred to a new tube and analyzed using mass spectrophotometry. A full MS scan was performed from 600.0 to 725.0 m/z (mass/charge) without fragmentations in positive polarity at a resolution of 70,000 (the range option is 17,500–140,000). The maximum injection time was 200 msec. The gas flow rates in arbitrary units were as follows: 48 for sheath, 11 for auxiliary, and 3 for sweep. The spray voltage was 4.00 kV, with a spray current of 5.90µA, a capillary temperature of 320 °C, and an auxiliary gas temperature of 250 °C with the S-lens Radio Frequency (RF) set to 50 (arbitrary units from 0 to 100). […] Intensities were quantified as the peak area containing all ion species within the specified m/+2 range. Then, 20 µL of the sample was injected onto an Eclipse Plus C18 column (1.8 um; 2.1 × 50 mm) at 45 °C at a rate of 0.3 mL/min and eluted with a gradient of acetonitrile (in 0.1% formic acid) using water in 0.1% formic acid as the aqueous phase. […]

[5] = tested on: lung cell types of wild-type mice; assay: Confocal microscopy of lung sections of injected mice cross-stained with cell markers; format: in vivo, mouse; conditions: 10 mg/kg i.v., 15 min, N = 3
Description: Animal studies: All animal protocols were approved by the University of Pittsburgh and the Mayo Clinic’s Institutional Animal Care and Use Committee. Wild-type, 6-week-old, CD1 (Charles Rivers, Wilmington, MA, USA; Cat #022) mice were weighed and anesthetized with an intraperitoneal injection of a 1:1 cocktail of Ketamine–Xylazine at 1–2 μL/gm body weight, followed by intravenous injection with Cy5.5-labeled peptides that were allowed to circulate for various time points. At the end of the circulation times, the mice were euthanized using inhalational CO2, their chest cavity was opened, their right atrium nicked and 3–5 mL of 10% formalin was injected through the left ventricular apex to perfusion-fix the animals. Various organs were harvested, rinsed once in PBS and imaged using an In Vivo Imaging System (IVIS; PerkinElmer Inc., Waltham, MA, USA) with identical instrument settings (stage position, exposure time, binning, F-stop, etc.). The organs were placed in 10% formalin at RT for 4 h, transferred to 15% sucrose at 4 °C overnight, followed by 30% sucrose at 4 °C overnight, before being embedded and cryo-sectioned at 6 μM thickness. […]

[6] = tested on: SARS-CoV-2 (strain USA_WA1/2020); assay: microbe, parasite or virus in culture; format: cell-based; conditions: Severe acute respiratory syndrome coronavirus 2; HBEC inserts, air-liquid interface; treatment apical and basolateral 24 h prior to infection; MOI ~0.0015 CCID50 per cell; virus collected after 5 days, titrated on Vero 76; triplicate; read-out: EC90 (inhibition of viral replication)

In the case of CC(C)C[C@H](NC(=O)[C@H](Cc1c[nH]cn1)NC(=O)[C@H](Cc1c[nH]c2ccccc12)NC(=O)[C@@H]1CCCN1C(=O)[C@H](C)NC(=O)CCCCC[N+]1=C(C=CC=CC=C2N(C)c3ccc4ccccc4c3C2(C)C)C(C)(C)c2c1ccc1ccccc21)C(=O)N[C@@H](CO)C(=O)N[C@@H](C)C(=O)N[C@@H](CCC(N)=O)C(=O)N[C@@H](Cc1ccc(O)cc1)C(=O)N[C@@H](CO)C(=O)N[C@@H](CCCNC(=N)N)C(=O)N[C@H](C(N)=O)[C@@H](C)O [S7A] (X1-APWHLSAQYSRT-NH2; C-terminus assumed), the “Uptake by HBECs (confocal)” value [1] is reported as “taken up at 10 min with uptake increasing at 30 min”, the “Uptake by CFBE41o- cells over time” value [2] is reported as “increasing uptake at 5 and 30 min” and the “Co-localization with endocytosed Alexa-488 transferrin” value [2] is reported as “did not show co-localization”. For the same compound, the tissue to tissue ratio at 0.25 h [3] was ~2.5, the “Uptake in the heart” value (wild-type CD1 mice; 10 mg/kg i.v., CD1 mice) was “negligible” and the Lung uptake (wild-type CD1 mice; 10 mg/kg i.v., CD1 mice, confocal/IVIS) was “robust lung uptake”.

For CC(C)C[C@H](NC(=O)[C@H](Cc1c[nH]cn1)NC(=O)[C@H](Cc1c[nH]c2ccccc12)NC(=O)[C@@H]1CCCN1C(=O)[C@H](C)NC(=O)CCCCC[N+]1=C(C=CC=CC=C2N(C)c3ccc4ccccc4c3C2(C)C)C(C)(C)c2c1ccc1ccccc21)C(=O)N[C@@H](CO)C(=O)N[C@@H](CO)C(=O)N[C@@H](CCC(N)=O)C(=O)N[C@@H](Cc1ccc(O)cc1)C(=O)N[C@@H](CO)C(=O)N[C@@H](C)C(=O)N[C@H](C(N)=O)[C@@H](C)O [R11A], the Serum stability [4] was “susceptibility to immediate degradation upon exposure to serum”, the “Uptake by HBECs (confocal)” value [1] was “taken up at 10 min with uptake increasing at 30 min” and the “Uptake by CFBE41o- cells over time” value [2] was “increasing uptake at 5 and 30 min”. For the same compound, the “Co-localization with endocytosed Alexa-488 transferrin” value [2] was “did not show co-localization”, the “Uptake in AT2 and p63+ cells (confocal) compared with cR11A” value [5] was “much lesser amounts” and the “Uptake in ionocytes, AT-1, club, ciliated, goblet, endothelial and smooth muscle cells (confocal)” value [5] was “no uptake”. The tissue to tissue ratio at 0.25 h [3] was 8, the “Lung uptake at lowest dose” value (wild-type CD1 mice; 1 mg/kg i.v., ex vivo IVIS) was “robust lung uptake” and the “Uptake in the heart” value (wild-type CD1 mice; 10 mg/kg i.v., CD1 mice) was “negligible”.

In the case of CCC(CC)COC(=O)[C@H](C)N[P@](=O)(OC[C@H]1O[C@@](C#N)(c2ccc3c(N)ncnn23)[C@H](O)[C@@H]1O)Oc1ccccc1 [Remdesivir], the EC90 [6] is reported as 19 nM.

In the case of “TALACYPHTVGQ [RAN, scrambled, random peptide […] used as control, reference compound]”, the “Uptake by HBECs (confocal)” value [1] is reported as “no uptake”.
